In the supplement of paper PMC6580486:
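Note: alveolar rhabdomyosarcoma tumor culture.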

These molecules were tested on U23674 (mouse alveolar rhabdomyosarcoma primary culture).
For `Nc1ccc(C#Cc2cncnc2Nc2ccc(OCc3cccc(F)c3)c(Cl)c2)cc1`, the IC50 cell viability was over 10 µM.
Work on `COc1cc(C)c(NC(=O)CN(C)C)cc1Nc1nc(Nc2cccc(F)c2C(N)=O)c2cc[nH]c2n1` yielded an IC50 cell viability of over 10 µM.
`CNC(=O)c1ncccc1Nc1nc(Nc2cc3c(cc2OC)CCCN3C(=O)CN(C)C)nc2[nH]ccc12` gave an IC50 cell viability of over 10 µM.
In the case of `Cc1cc(O)cc(C)c1/C=C/c1cncc(C(=O)N(C)C)c1`, the IC50 cell viability is reported as over 10 µM.
`CC(C)(CO)CNC(=O)c1ccc2[nH]c(O)c(N=Nc3ccc(S(N)(=O)=O)cc3)c2c1` gave an IC50 cell viability of over 10 µM.
`c1ccc(COc2ccc(Nc3ncnc4ccc(-c5ccco5)cc34)cc2)cc1` showed an IC50 cell viability of over 10 µM.
`COc1ccc(-c2nn3ncccc3c2-c2ccnc(Nc3ccc(F)c(F)c3)n2)cc1` gave an IC50 cell viability of over 10 µM.
Work on `Cc1cccc(Nc2ncc(-c3ccccc3)o2)c1` yielded an IC50 cell viability of over 10 µM.
`COc1ccc(COc2ccc(Cc3cnc(N)nc3N)cc2OC)cc1` gave an IC50 cell viability of over 10 µM.
`CS(=O)(=O)CCNCc1ccc(-c2ccc3ncnc(Nc4ccc(OCc5ccccc5)c(C(F)(F)F)c4)c3c2)o1` gave an IC50 cell viability of over 10 µM.
In the case of `CC1=C(C(=O)Nc2cc(Cl)c3[nH]ncc3c2)C(c2ccc(C(F)(F)F)cc2)CC(=O)N1` (stereo not drawn), the IC50 cell viability is reported as over 10 µM.
With `FC(F)(F)c1ccc(-c2nn3ncccc3c2-c2ccnc(Nc3ccc4c(c3)OCCO4)n2)cc1` the IC50 cell viability was over 10 µM.
`CCn1c(-c2nonc2N)nc2cncc(C(=O)NCCNC)c21` gave an IC50 cell viability of over 10 µM.
Molecule `COc1cc2ncnc(Nc3ccc4c(cnn4Cc4ccccc4)c3)c2cc1OC` has an IC50 cell viability of over 10 µM.
Molecule `Fc1ccc(-c2nn3ncccc3c2-c2ccnc(Nc3ccc4c(c3)OCCO4)n2)cc1` has an IC50 cell viability of over 10 µM.
Work on `CS(=O)(=O)CCNCc1ccc(-c2ccc3ncnc(Nc4ccc(OCc5ccccc5)c(Br)c4)c3c2)o1` yielded an IC50 cell viability of over 10 µM.
For `NS(=O)(=O)c1ccc(N=Cc2c(O)[nH]c3ccc4ncsc4c23)cc1`, the IC50 cell viability was over 10 µM.
`COC(=O)Nc1nc2ccc(Sc3ccc(NC(=O)Nc4cc(C(F)(F)F)ccc4F)cc3)cc2[nH]1` was tested, and the IC50 cell viability was over 10 µM.
`Cc1cc(-c2ccco2)cc(C)c1/C=C/c1cncc(-c2nn[nH]n2)c1` showed an IC50 cell viability of over 10 µM.
Molecule `Fc1ccc(-c2ncn(C3CCNCC3)c2-c2ccnc(Oc3ccc4c(c3)OCO4)n2)cc1` has an IC50 cell viability of over 10 µM.
Molecule `COc1ccc(Nc2ncc(-c3ccccc3)o2)cc1OC` has an IC50 cell viability of over 10 µM.
`Fc1ccc(-c2nc3n(c2-c2ccncc2)CCS3)cc1` was tested, and the IC50 cell viability was over 10 µM.
For `Cc1ccc(NC(=O)CC2CC2)cc1-c1ccc(C(=O)NCC2CC2)cc1`, the IC50 cell viability was 3.4 µM.
For `c1ccc(Cc2nc3ccc(Nc4ncnc5ccccc45)cc3[nH]2)cc1`, the IC50 cell viability was over 10 µM.
`N#Cc1c(NC(=O)CN2CCOCC2)sc2c1CCCC2` was tested, and the IC50 cell viability was over 10 µM.
In the case of `Cc1nc(-c2ccccc2)n2nc(NCCCN3CCOCC3)ncc12`, the IC50 cell viability is reported as over 10 µM.
`CCCN1CCCC(c2ccc(Nc3nc(Nc4cc(F)ccc4C(N)=O)c4cc[nH]c4n3)c(OC)c2)C1` (stereo not drawn) gave an IC50 cell viability of 1.4 µM.
`COc1cc(Nc2ncc3c(C)nc(-c4cccc(C(F)(F)F)c4)n3n2)cc(OC)c1OC` was tested, and the IC50 cell viability was over 10 µM.
`CCCN1CCC(Oc2cc(Nc3nc(Nc4cccc(F)c4C(N)=O)c4cc[nH]c4n3)c(OC)cc2Cl)CC1` showed an IC50 cell viability of 3.2 µM.
In the case of `CN(C)CCCNc1nccc(-c2c(-c3ccc(F)cc3)nn3cc(C(F)(F)F)ccc23)n1`, the IC50 cell viability is reported as 2.2 µM.
Work on `c1cc(-c2cnn3nc(N4CCOCC4)ccc23)nc(NC2CC2)n1` yielded an IC50 cell viability of over 10 µM.
`CC1=C(C(=O)Nc2ccc3n[nH]c(C)c3c2)C(c2ccc(C(F)(F)F)cc2)CC(=O)N1` (stereo not drawn) gave an IC50 cell viability of over 10 µM.
Work on `CCn1c(-c2nonc2N)nc2c(N3CCCC3)nccc21` yielded an IC50 cell viability of over 10 µM.
In the case of `CCn1c(-c2nonc2N)nc2c(C#CC(C)(C)O)ncc(OC3CCNCC3)c21`, the IC50 cell viability is reported as over 10 µM.
Molecule `CN1CCN(Cc2ccc(-c3cc4ncnc(Nc5ccc(OCc6cccc(F)c6)c(Cl)c5)c4s3)o2)CC1` has an IC50 cell viability of over 10 µM.
`COc1cccc(-n2ncc3c(N/N=C/c4cccc(F)c4)ncnc32)c1` showed an IC50 cell viability of over 10 µM.
`COc1cccc(/C=N/Nc2ncnc3c2cnn3-c2cccc(OC)c2)c1` showed an IC50 cell viability of over 10 µM.
Molecule `COc1cc2c(cc1Nc1nc(Nc3ccsc3C(N)=O)c3cc[nH]c3n1)N(C(=O)CN(C)C)CCC2(C)C` has an IC50 cell viability of 0.4 µM.
`Cc1ccc(-c2cc3c(NC(=O)C4CC4)ncnc3o2)cc1` showed an IC50 cell viability of over 10 µM.
Work on `COc1cc(Nc2ncc(-c3ccccc3)o2)cc(OC)c1` yielded an IC50 cell viability of over 10 µM.
`Cc1ccc(NC(=O)c2ccoc2)cc1-c1ccc(C(=O)NCC2CC2)cc1` showed an IC50 cell viability of over 10 µM.
In the case of `Cn1c(-c2nonc2N)nc2cnccc21`, the IC50 cell viability is reported as over 10 µM.
With `Nc1nc(-c2ccccn2)c(-c2ccc3ncccc3n2)s1` the IC50 cell viability was over 10 µM.
For `NC(=O)c1ccc(Oc2nccc(-c3c(-c4ccc(F)cc4)ncn3C3CCNCC3)n2)cc1`, the IC50 cell viability was over 10 µM.
In the case of `O=C(Nc1n[nH]c2nc(-c3ccc(O)cc3)c(Br)cc12)C1CC1`, the IC50 cell viability is reported as over 10 µM.
Work on `N#Cc1ccc(Oc2nccc(-c3c(-c4ccc(F)cc4)ncn3C3CCNCC3)n2)cc1` yielded an IC50 cell viability of over 10 µM.
`NS(=O)(=O)c1ccc(-c2cc3ccncc3cc2OCc2ccccc2)cc1` gave an IC50 cell viability of over 10 µM.
`CCn1c(-c2nonc2N)nc2c(C#CC(C)(C)O)nc(OCCNC)cc21` was tested, and the IC50 cell viability was 1.3 µM.
With `N#Cc1c(NC(=O)c2ccc(F)cc2)sc2c1CCCC2` the IC50 cell viability was over 10 µM.
`CCCNc1cccc(-n2ncc3c(N/N=C/c4ccncc4)ncnc32)c1` showed an IC50 cell viability of over 10 µM.
For `COc1cccc(Nc2nccc(-c3cnn4ncccc34)n2)c1`, the IC50 cell viability was 0.01 µM.
`COc1ccc2[nH]c3c4[nH]c5ccc(OC)cc5c4c4c(c3c2c1)C(=O)NC4=O` showed an IC50 cell viability of over 10 µM.
`Clc1ccc(-c2nn3ncccc3c2-c2ccnc(Nc3ccccc3)n2)cc1` was tested, and the IC50 cell viability was over 10 µM.
In the case of `Cc1cc(Cl)cc2c(N=Nc3ccc(S(N)(=O)=O)cc3)c(O)[nH]c12`, the IC50 cell viability is reported as over 10 µM.
Work on `NC(=O)c1cc(-c2ccc(F)cc2)cc(-c2ccncc2)c1N` yielded an IC50 cell viability of over 10 µM.
With `COC(=O)Nc1nc2ccc(Oc3ccc(NC(=O)Nc4cccc(Cl)c4)cc3)cc2[nH]1` the IC50 cell viability was over 10 µM.
Work on `CNC(=O)c1cncc(/C=C/c2c(Cl)cccc2Cl)c1` yielded an IC50 cell viability of over 10 µM.
With `Cc1c2ccc(N(C)c3ccnc(Nc4cccc(S(N)(=O)=O)c4)n3)cc2nn1C` the IC50 cell viability was over 10 µM.
For `CCn1c(-c2nonc2N)nc2c(C#CCN)ncc(OCCCN)c21`, the IC50 cell viability was over 10 µM.
Molecule `COc1cc(Nc2nccc(Nc3ccc4c(C)[nH]nc4c3)n2)cc(OC)c1OC` has an IC50 cell viability of 5.6 µM.
With `CC(C)c1ccc(-c2cc(-c3cn[nH]c3-c3ccccn3)ccn2)cc1` the IC50 cell viability was over 10 µM.
Molecule `COc1ccc2cc(-c3c(-c4ccncc4)nc(-c4ccc([S+](C)[O-])cc4)n3C)ccc2c1` (stereo not drawn) has an IC50 cell viability of over 10 µM.
For `CS(=O)(=O)CCNCc1ccc(-c2ccc3ncnc(Nc4ccc(OCc5ccccc5)c(Cl)c4)c3c2)o1`, the IC50 cell viability was over 10 µM.
`CNC(=O)Oc1cc(C)c(/C=C/c2cncc(C(=O)NC)c2)c(C)c1` was tested, and the IC50 cell viability was over 10 µM.
Molecule `CCn1c(-c2nonc2N)nc2cnc(Oc3cccc(NC(=O)c4ccc(OCCN5CCOCC5)cc4)c3)cc21` has an IC50 cell viability of over 10 µM.
`CS(=O)(=O)CCNCc1ccc(-c2ccc3ncnc(Nc4ccc(OCc5ccccc5)cc4)c3c2)o1` showed an IC50 cell viability of over 10 µM.
`CCOc1ccc2c(-c3ccnc(Nc4cccc(C(F)(F)F)c4)n3)cnn2n1` was tested, and the IC50 cell viability was over 10 µM.
In the case of `CCn1c(-c2nonc2N)nc2c(C#CC(C)(C)O)nc(CN3CCCC3)cc21`, the IC50 cell viability is reported as over 10 µM.
Molecule `CCn1c(-c2nonc2N)nc2cnc(Oc3cccc(NC(=O)c4ccc(N(C)C)cc4)c3)cc21` has an IC50 cell viability of over 10 µM.
In the case of `COC(=O)Nc1nc2ccc(Oc3ccc(NC(=O)Nc4cccc(C(=O)O)c4)cc3)cc2[nH]1`, the IC50 cell viability is reported as over 10 µM.
`OCc1ccc(-c2nc(-c3ccc4c(c3)OCO4)c(-c3ccccn3)[nH]2)cc1` gave an IC50 cell viability of over 10 µM.
Molecule `CCn1c(-c2nonc2N)nc2ccc(F)cc21` has an IC50 cell viability of over 10 µM.
In the case of `COc1ccc(-c2cc3c(N)ncnc3o2)cc1`, the IC50 cell viability is reported as over 10 µM.
Molecule `CCc1nccc2c1nc(-c1nonc1N)n2CC` has an IC50 cell viability of over 10 µM.
`Cc1ccc(C(=O)NC(C)C)cc1-c1ccc(C(=O)NCC2CC2)cc1` was tested, and the IC50 cell viability was over 10 µM.
With `CS(=O)(=O)CCNCc1nc(-c2ccc3ncnc(Nc4ccc(OCc5cccc(C(F)(F)F)c5)cc4)c3c2)cs1` the IC50 cell viability was over 10 µM.
Work on `C[C@@H](Oc1cc(-n2cnc3ccc(OCC4CCN(C)CC4)cc32)sc1C(N)=O)c1ccccc1Cl` yielded an IC50 cell viability of 1.3 µM.
With `Fc1ccc(-c2ncn(C3CCNCC3)c2-c2ccnc(Oc3ccc(Oc4ccccc4)cc3)n2)cc1` the IC50 cell viability was 2 µM.
In the case of `Cc1nnc(-c2cccc(-c3ccc(C(=O)NCC4CC4)cc3)c2)o1`, the IC50 cell viability is reported as over 10 µM.
For `Cc1ccc(Nc2ccnc(Nc3cccc(C(N)=O)c3)n2)cc1O`, the IC50 cell viability was over 10 µM.
In the case of `N#Cc1cccc(Nc2nccc(-c3cnn4ncccc34)n2)c1`, the IC50 cell viability is reported as 0.05 µM.
`COc1ccc(-c2oc3ncnc(N)c3c2-c2ccc(NC(=O)Nc3cc(C(F)(F)F)ccc3F)cc2)cc1` showed an IC50 cell viability of over 10 µM.
For `NS(=O)(=O)c1ccc(N=Nc2c(O)[nH]c3ccc(C(=O)NCc4ccncc4)cc23)cc1`, the IC50 cell viability was over 10 µM.
Molecule `COC(=O)Nc1nc2ccc(Oc3ccc(NC(=O)Nc4cccc(Br)c4)cc3)cc2[nH]1` has an IC50 cell viability of over 10 µM.
`c1ccc(-c2nc3n(c2-c2ccc4c(c2)OCO4)CCC3)nc1` was tested, and the IC50 cell viability was over 10 µM.
Molecule `O=C1NC(=O)C(c2ccc(Cl)cc2)=C1Nc1ccc(Cl)c(C(=O)O)c1` has an IC50 cell viability of 3.9 µM.
For `Nc1ncnc2occ(-c3ccc(NC(=O)Nc4cc(C(F)(F)F)ccc4F)cc3)c12`, the IC50 cell viability was over 10 µM.
`Nc1nc(-c2ccc(F)cc2)c(-c2ccc3ncccc3n2)s1` gave an IC50 cell viability of over 10 µM.
`Cc1ccc(C(=O)NC2CCC2)cc1-c1ccc(C(=O)NCC2CC2)cc1` gave an IC50 cell viability of over 10 µM.
Work on `C[C@@H](Oc1cc(-n2cnc3ccc(OC[C@@H](O)CO)cc32)sc1C(N)=O)c1ccccc1Cl` yielded an IC50 cell viability of 5.4 µM.
Work on `COc1ccc(-c2coc3ncnc(N)c23)cc1` yielded an IC50 cell viability of over 10 µM.
Molecule `CN(c1ccc(NC(=O)NCCN2CCOCC2)cc1)c1ccnc(Nc2ccc(CS(C)(=O)=O)cc2)n1` has an IC50 cell viability of over 10 µM.
`O=C(OC1CNC(C#Cc2cc3ncnc(Nc4ccc5c(ccn5Cc5cc(F)ccc5F)c4)c3s2)C1)N1CCOCC1` (stereo not drawn) showed an IC50 cell viability of over 10 µM.
`O=C1NC(=O)C(N2CCc3ccccc32)=C1c1ccc(Cl)cc1` gave an IC50 cell viability of over 10 µM.
`NS(=O)(=O)c1ccc(N=Nc2c(O)[nH]c3ccc(C(=O)NCCc4cnc[nH]4)cc23)cc1` showed an IC50 cell viability of over 10 µM.
Work on `Cc1cc(-c2ccccn2)cc(C)c1/C=C/c1cncc(-c2nn[nH]n2)c1` yielded an IC50 cell viability of over 10 µM.
`CCn1c(-c2nonc2N)nc2c(C#CC(C)(C)O)nc(OC[C@H](N)c3ccccc3)cc21` showed an IC50 cell viability of 1.6 µM.
In the case of `CCCN1CCC(c2ccc(Nc3nc(Nc4cc(F)ccc4C(N)=O)c4cc[nH]c4n3)c(OC)c2)CC1`, the IC50 cell viability is reported as over 10 µM.
